Consider 14 molecules from ChEMBL document CHEMBL3112429, “Discovery of MK-1439, an orally bioavailable non-nucleoside reverse transcriptase inhibitor potent against a wide range of resistant mutant HIV viruses” (Bioorg Med Chem Lett, 2014).

The test system of data set [1] is Human immunodeficiency virus. The experiment in a line: Antiviral activity against HIV harboring reverse transcriptase K103N/Y181C double mutant infected in human MT4 cells assessed as inhibition of viral infection in presence of 50% normal human serum. Type of data set: functional. As to conditions: Human immunodeficiency virus 1, MT4.
In data set [2] the test system is Human immunodeficiency virus. Briefly: Antiviral activity against HIV harboring reverse transcriptase Y181C mutant infected in human MT4 cells assessed as inhibition of viral infection in presence of 50% normal human serum. Type of data set: functional. Particulars: Human immunodeficiency virus 1, MT4.
The test system of data set [3] is Human immunodeficiency virus. The experiment in a line: Antiviral activity against HIV harboring reverse transcriptase K103N mutant infected in human MT4 cells assessed as inhibition of viral infection in presence of 50% normal human serum. Type of data set: functional. Particulars: Human immunodeficiency virus 1, MT4.
The nature of data set [4]: Inhibition of HIV wild-type reverse transcriptase by electrochemiluminescence assay. Details: species or system Human immunodeficiency virus.
Data set [5] concerns Human immunodeficiency virus. The experiment in a line: Antiviral activity against wild-type HIV infected in human MT4 cells assessed as inhibition of viral infection in presence of 50% normal human serum. It counts as functional. Particulars: Human immunodeficiency virus 1, MT4.
Data set [6] can be described thus: Elimination half life in Sprague-Dawley rat at 1 mg/kg, iv administered in 60% PEG200. It counts as ADME, organism-based. More on the design: dose 1 mg/kg, route intravenous. As to conditions: in vivo, read-out: beta t1/2 (converted).
Data set [7] can be described thus: Solubility of the compound in fasted simulated intestinal fluid. It counts as ADME.
Data set [8] in a line: Aqueous equilibrium solubility of the compound at pH 8 after 24 hrs incubated in absence of light by HPLC analysis. As to conditions: aqueous medium. Type of data set: physicochemical.
Data set [9] in a line: Aqueous equilibrium solubility of the compound at pH 4 after 24 hrs incubated in absence of light by HPLC analysis. It counts as physicochemical. As to conditions: aqueous medium.
Data set [10] relates to Canis familiaris. Briefly: Dose normalized AUC (0 to 24 hrs) in Beagle dog at 1 mg/kg, po administered in 0.5% methocel as ball-milled particles. As to conditions: in vivo. Details: dose 1 mg/kg, route oral. It counts as ADME, organism-based, Canis lupus familiaris.
A short description of data set [11]: Oral bioavailability in Beagle dog at 1 mg/kg administered in 0.5% methocel as ball-milled particles. It counts as ADME, organism-based, Canis lupus familiaris. Particulars: in vivo.
Data set [12] can be described thus: Half life in Beagle dog at 0.5 mg/kg, iv administered in 80% PEG200 and 1 mg/kg, po administered in 0.5% methocel as ball-milled particles. It counts as ADME, organism-based, Canis lupus familiaris. Particulars: in vivo.
The nature of data set [13]: Clearance in Beagle dog at 0.5 mg/kg, iv administered in 80% PEG200 and 1 mg/kg, po administered in 0.5% methocel as ball-milled particles. It counts as ADME, organism-based, Canis lupus familiaris. Particulars: in vivo.
Data set [14] can be described thus: Volume of distribution in Beagle dog at 0.5 mg/kg, iv administered in 80% PEG200 and 1 mg/kg, po administered in 0.5% methocel as ball-milled particles. It counts as ADME, organism-based, Canis lupus familiaris. Particulars: in vivo.
The test system of data set [15] is Rattus norvegicus. The experiment in a line: Dose normalized AUC (0 to 24 hrs) in Sprague-Dawley rat at 1 mg/kg, iv administered in 80% PEG200. It counts as ADME, organism-based. More on the design: dose 1 mg/kg, route intravenous. As to conditions: in vivo.
Data set [16] in a line: Oral bioavailability in Sprague-Dawley rat at 5 mg/kg administered in 0.5% methocel as ball-milled particles. It counts as ADME, organism-based. As to conditions: in vivo.
Data set [17] can be described thus: Half life in Sprague-Dawley rat at 1 mg/kg, iv administered in 80% PEG200 and 5 mg/kg, po administered in 0.5% methocel as ball-milled particles. It counts as ADME, organism-based. Particulars: in vivo.
Data set [18] can be described thus: Clearance in Sprague-Dawley rat at 1 mg/kg, iv administered in 80% PEG200 and 5 mg/kg, po administered in 0.5% methocel as ball-milled particles. Type of data set: ADME, organism-based. Particulars: in vivo.
Data set [19] can be described thus: Volume of distribution in Sprague-Dawley rat at 1 mg/kg, iv administered in 80% PEG200 and 5 mg/kg, po administered in 0.5% methocel as ball-milled particles. Type of data set: ADME, organism-based. Particulars: in vivo.
The nature of data set [20]: Clearance in Sprague-Dawley rat at 5 mg/kg, po administered in methocel suspension and 1 mg/kg, iv administered in 60% PEG200. Type of data set: ADME, organism-based. Particulars: in vivo.
The nature of data set [21]: Oral bioavailability in Sprague-Dawley rat at 5 mg/kg administered in methocel suspension. Type of data set: ADME, organism-based. Particulars: in vivo.
Data set [22] is described as follows: Aqueous solubility of the compound in PBS buffer by light scattering assay. Type of data set: physicochemical.
The nature of data set [23]: Aqueous equilibrium solubility of the compound after 24 hrs incubated in absence of light by HPLC analysis. It counts as physicochemical. Particulars: buffer.

Each structure is given as a SMILES string. ≈ marks a conversion by molar mass, not a printed value.

Consider `Cc1cc(/C=C/C#N)cc(C)c1Nc1ccnc(Nc2ccc(C#N)cc2)n1` [RILPIVIRINE], for which the IC95 in data set [1] amounted to 0.37 µM; in data set [2] it was 0.12 µM; in data set [3], 0.044 µM; in [5], 0.036 µM. In [4], this molecule showed an IC50 of 0.001 µM.

As for `CSc1ccn(Cc2n[nH]c3ncccc23)c(=O)c1Oc1cc(Cl)cc(C#N)c1`, the IC95 in data set [1] was found to be 0.033 µM; in data set [5] it was 0.015 µM. It took 0.009 µM to reach half-maximal inhibition in data set [4] (IC50).

For the molecule `N#Cc1cc(Cl)cc(Oc2c(Br)ccn(Cc3n[nH]c4ncccc34)c2=O)c1`, the IC95 was determined as 0.021 µM in data set [1] and 0.004 µM in data set [5]. In [4], this molecule displayed an IC50 of 0.002 µM.

`N#Cc1cc(Cl)cc(Oc2c(C(F)(F)F)ccn(Cc3n[nH]c4nc(C(N)=O)ccc34)c2=O)c1` displayed a half-maximal inhibitory concentration (IC50) in [4] of 0.007 µM. Moreover, the IC95 in data set [5] turned out to be 0.021 µM.

As to `N#Cc1cc(Cl)cc(Oc2c(C(F)(F)F)ccn(Cc3n[nH]c4nc(N5CC(CN)C5)ccc34)c2=O)c1`, the half-maximal inhibitory concentration (IC50) in data set [4] amounted to 0.007 µM. Besides, in data set [5], the IC95 came to 0.025 µM.

In the case of `N#Cc1cc(Cl)cc(Oc2c(Cl)ccn(Cc3n[nH]c4ncccc34)c2=O)c1`, in data set [6], the half-life was 2.2 h. The IC95 in data set [1] turned out to be 0.07 µM; in data set [2] it was 0.02 µM; in [3] it was 0.012 µM; in data set [5], 0.008 µM. For the same molecule, the IC50 in data set [4] came out at 0.003 µM.

For the molecule `N#Cc1cc(Cl)cc(Oc2c(C(F)(F)F)ccn(Cc3n[nH]c4cncc(F)c34)c2=O)c1`, 0.004 µM corresponded to half-maximal inhibition in data set [4] (IC50). The 95% effect concentration (IC95) in data set [5] came to 0.076 µM.

As to `Cc1ncsc1Cn1ccc(C(F)(F)F)c(Oc2cc(Cl)cc(C#N)c2)c1=O`, the half-inhibitory concentration (IC50) in [4] stood at 0.016 µM. In addition, the IC95 in data set [5] amounted to 0.1 µM.

In the case of `N#Cc1cc(Cl)cc(Oc2c(C(F)(F)F)ccn(Cc3n[nH]c4ncccc34)c2=O)c1`, the solubility in data set [7] was 1.3 µg/mL (≈ 2.92 µM); in data set [23], 0.0002 µg/mL (≈ 0.000449 µM). Besides, the solubility (thermodynamic) at 24 h in data set [8] and in data set [9] was below 0.1 µg/mL each time. The AUC/dose in data set [10] is 1.7 µM·h; in data set [15], 0.25 µM·h. Besides, the results for the bioavailability in [11], in [16] and in data set [21] were 9%, 15% and 13%, respectively. Also, the values for the half-life in data set [12], in data set [17] and in [6] were 10 h, 7 h and 7 h, respectively. In addition, the results for the clearance in [13], in [18] and in data set [20] were 0.108 L/h/kg, 0.9 L/h/kg and 1.08 L/h/kg, respectively. Besides, the Vd in data set [14] was 1.5 L/kg; in data set [19] it was 8.8 L/kg. For the same molecule, the kinetic solubility in data set [22] is 1.1 µM (≈ 0.49 µg/mL). Also, the IC95 is 0.07 µM in data set [1], 0.06 µM in data set [2], 0.024 µM in [3] and 0.017 µM in [5]. The molecule also registered a half-maximal inhibitory concentration (IC50) in data set [4] of 0.003 µM.

For the molecule `N#Cc1cc(Cl)cc(Oc2c(C(F)(F)F)ccn(Cc3n[nH]c(=O)[nH]3)c2=O)c1`, in [22], the solubility (kinetic) was found to be 51 µM (≈ 21 µg/mL). For the same molecule, the IC50 in data set [4] was found to be 0.05 µM.

The molecule `N#Cc1cc(Cl)cc(Oc2c(C(F)(F)F)ccn(Cc3n[nH]c4nc(NC5CCS(=O)(=O)C5)ccc34)c2=O)c1` (configuration not stated) came in with an IC50 in data set [4] of 0.007 µM. In [5], the IC95 worked out at 0.064 µM.

For `N#Cc1cc(Cl)cc(Oc2c(C(F)(F)F)ccn(Cc3n[nH]c4ncc(F)cc34)c2=O)c1`, the 50% inhibitory concentration (IC50) in data set [4] worked out at 0.003 µM. Besides, the IC95 in [5] came to 0.042 µM.

`CCn1c(Cn2ccc(C(F)(F)F)c(Oc3cc(Cl)cc(C#N)c3)c2=O)n[nH]c1=O` showed a half-maximal inhibitory concentration (IC50) in data set [4] of 0.021 µM. The IC95 in data set [5] is above 0.12 µM.

`Cn1ccnc1Cn1ccc(C(F)(F)F)c(Oc2cc(Cl)cc(C#N)c2)c1=O` returned an IC50 in [4] of 0.3 µM.
